Here are results for one compound from patent US7371867B2, “Non-racemic trifluoroleucine, and methods of making and using” (Trustees of Tufts College, priority 2001, dated 2008).

Usually melting point stands for the temperature of the solid-liquid transition.

Take `CC(C)(C)OC(=O)N[C@@H](CC(C(F)(F)F)C(F)(F)F)C(=O)O` [Peptide 5, N-Boc-5,5,5,5′,5′,5′-(S)-Hexafluoroleucine]: the melting point was 85 to 91 °C.
